Consider three substances from publication PMC3198734 (PLoS ONE, 2011).

Where no end group is shown, it is not given here.

The subject of experiment [1] is IL-1β, GM-CSF, KC, RANTES, MIP-1α in BAL fluid. It counts as in vivo, BALB/c mice.
A further experiment has as its system Acinetobacter baumannii. It is filed as cell-based. The settings on record: data not shown.

Consider “LLGDFFRKSKEKIGKEFKRIVQRIKDFLRNLVPRTES [LL-37, human cathelicidin peptide generated from hCAP-18]”, for which, in experiment [1] (mouse, in vivo), the “BAL fluid concentration of GM-CSF compared with PR/8 infected control animals” value is on record as “significantly lower”, the “BAL fluid concentration of IL-1β compared with PR/8 infected control animals” value is “significantly lower”, the “BAL fluid concentration of KC” value is “unchanged compared with uninfected controls” and the “BAL fluid concentration of MIP-1α (non-significant increase after infection)” value is recorded as “this increase was ameliorated”. Moreover, in experiment [1] (mouse, in vivo), the “BAL fluid concentration of RANTES” value is on record as “unchanged compared with uninfected controls”. For the same substance, the “BAL fluid cytokine concentrations in the absence of influenza virus infection” value in experiment [1] (uninfected mice, nebulized peptide, BAL on day 3) is given as “did not significantly alter cytokine concentrations”. In the experiment on Acinetobacter baumannii, the “antimicrobial activity of the preparation” value (“antimicrobial activity” for short) is reported as “confirmed”.
With “GLLRKGGEKIGEKLKKIGQKIKNFFQKLVPQPEQ [mCRAMP, mouse cathelicidin peptide]”, in the experiment on Acinetobacter baumannii, the “antimicrobial activity” value was “confirmed”.
In the case of “RGGRLCYCRRRFCVCVGR-NH2 (also: bicyclic or more (positions not given here)) [Protegrin-1, porcine neutrophil-derived cathelicidin peptide with two disulfide bridges]”, the “antimicrobial activity” value in the experiment with Acinetobacter baumannii was “confirmed”.
